According to PubChem BioAssay AID1963984 (Molecular Pharmacology Branch, DTP, NCI, 2024):

Tested on: 233499-124-R-J3-PDC spheroids with HUVEC/MSC, viability
Test: Anticancer human tumor 233499-124-R-J3-PDC patient-derived colon adenocarcinoma cell line growth inhibition [PI3K]
Conditions: for IC50: curve of first compound; for viability, T/C: stronger effect = lower value; active means viability on the fitted dose curve at most 10% of control; inactive means the rest
Excerpt: Combinatorial screen of targeted agents with the PI3K inhibitors inavolisib, alpelisib, duvelisib, and copanlisib in multi-cell type tumor spheroids
A high-throughput screen of multi-cell type tumor spheroids was designed to identify active combinations of targeted small molecules and PI3K pathway inhibitors. Complex spheroids include a stromal component modeled by human endothelial cells (HUVEC) and fibroblasts modeled by human mesenchymal stem cells (MSCs). The concentration ranges selected for each drug and investigational agent were based upon clinically achievable concentrations if the clinical Cmax of the agent was known.
Compounds. The drugs and investigational agents: inavolisib (NSC800729), alpelisib (NSC765974), duvelisib (NSC772469), copanlisib (NSC816437), ipatasertib (NSC767898), afuresertib (NSC778305), talazoparib (NSC767125), sapanisertib (NSC764658), selumetinib (NSC741078), tovorafenib (DAY101, NSC766906), vemurafenib (NSC761431), ravoxertinib (NSC781343), sotorasib (NSC818433), MRTX1133 (NSC 836407), abemaciclib (NSC 768073), palbociclib (NSC758247), venetoclax (NSC 766270), SY5609 (NSC837396), enzalutamide (NSC755605), and darolutamide (NSC825331), were obtained from the National Cancer Institute (NCI) Developmental Therapeutics Program Chemical Repository. The FDA-approved anticancer drug set is available from the NCI Developmental Therapeutics Program. […] The stock solutions were prepared in dimethyl sulfoxide (DMSO, Sigma-Aldrich, St. Louis, MO, cat. D2650) at 800-fold the tested concentration and stored at -70 degrees C prior to their use. All drugs and investigational agents were tested over a range starting from a high concentration at or near the clinical Cmax and decreasing in half-log increments. If the clinical Cmax for an agent had not been determined, the highest concentration tested was 10 microM.
Cell Culture. All cells were maintained in an incubator at 37 degrees C and 5% CO2 with 95% humidity. The PDC lines were cultured according to standard operating procedures established by the NCI PDMR (https://pdmr.cancer.gov/sops/default.htm). All PDCs were thawed and cultured in Matrigel-coated flasks prepared with a working solution of 1X Ham's F-12 nutrient mix, without supplementation (Invitrogen, Waltham, MA, cat. 11765054), 100 U/mL penicillin-streptomycin (Invitrogen, cat. 15140122), and 2.5% Matrigel (Corning Inc., Corning, NY, cat. 354248) for the first three passages. The 354836-022-R-J1-PDC, 475296-252-R-J1-PDC, and 997726-040-R-J2-PDC lines were cultured in 6A media, which includes advanced DMEM/F-12 (Thermo Fisher Scientific, cat. 12634028), 10 mM HEPES (Thermo Fisher Scientific, cat. 15630080), 1X GlutaMAX supplement (Thermo Fisher Scientific, cat. 35050061), 0.1 mg/mL primocin (InvivoGen, San Diego, CA, cat. ant-pm-2), 10% defined fetal bovine serum, heat inactivated (HyClone Laboratories Inc., Logan, UT, cat. SH30070.03HI), 50% L-WRN conditioned media (ATCC, cat. CRL-3276), 1.25 mM N-Acetyl-L-cysteine (Sigma-Aldrich, cat. A9165), 10 mM nicotinamide (Sigma-Aldrich, cat. N0636), 1X B-27 supplement (Thermo Fisher Scientific, cat. 17504044), 1X N-2 supplement (Thermo Fisher Scientific, cat. 17502048), and 10 microM Y-27632 dihydrochloride (Tocris Bioscience, Bristol, United Kingdom, cat. 1254). The 624824-186-R-J2-PDC line was cultured in 6C/Colon 1B media, which includes all 6A media components plus 50 ng/mL human EGF recombinant protein (Thermo Fisher Scientific, cat. PHG0311). […]
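Further: spheroids exposed to agents for seven days before readout.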
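Wherever viability, T/C is given: percent viability relative to DMSO vehicle control taken as 100%.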

CC(C)n1nc(-c2ccc3oc(N)nc3c2)c2c(N)ncnc21 + CC(Nc1ncnc2nc[nH]c12)c1cc2cccc(Cl)c2c(=O)n1-c1ccccc1
89.3 nM: IC50 (second compound 0.1 µM)
81.1 nM: IC50 (second compound 0.0316 µM)
> 100 nM: IC50 (second compound 0.316 µM) | IC50 (second compound 3.16 µM)
83 nM: IC50 (second compound 1 µM)
inactive: viability, T/C (second compound 0.0316 µM, first compound 0.000316 µM) 108% | viability, T/C (second compound 0.0316 µM, first compound 0.001 µM) 90.8% | viability, T/C (second compound 0.0316 µM, first compound 0.00316 µM) 104% | viability, T/C (second compound 0.0316 µM, first compound 0.01 µM) 79.4% | viability, T/C (second compound 0.0316 µM, first compound 0.0316 µM) 73.2% | viability, T/C (second compound 0.0316 µM, first compound 0.1 µM) 44.5% | viability, T/C (second compound 0.1 µM, first compound 0.000316 µM) 96.3% | viability, T/C (second compound 0.1 µM, first compound 0.001 µM) 85.1% | viability, T/C (second compound 0.1 µM, first compound 0.00316 µM) 97.8% | viability, T/C (second compound 0.1 µM, first compound 0.01 µM) 79.3% | viability, T/C (second compound 0.1 µM, first compound 0.0316 µM) 84.2% | viability, T/C (second compound 0.1 µM, first compound 0.1 µM) 45.9% | viability, T/C (second compound 0.316 µM, first compound 0.000316 µM) 93.2% | viability, T/C (second compound 0.316 µM, first compound 0.001 µM) 82.6% | viability, T/C (second compound 0.316 µM, first compound 0.00316 µM) 83.3% | viability, T/C (second compound 0.316 µM, first compound 0.01 µM) 95.9% | viability, T/C (second compound 0.316 µM, first compound 0.0316 µM) 75.2% | viability, T/C (second compound 0.316 µM, first compound 0.1 µM) 81.7% | viability, T/C (second compound 1 µM, first compound 0.000316 µM) 88.5% | viability, T/C (second compound 1 µM, first compound 0.001 µM) 82.2% | viability, T/C (second compound 1 µM, first compound 0.00316 µM) 104% | viability, T/C (second compound 1 µM, first compound 0.01 µM) 93% | viability, T/C (second compound 1 µM, first compound 0.0316 µM) 83.2% | viability, T/C (second compound 1 µM, first compound 0.1 µM) 43.3% | viability, T/C (second compound 3.16 µM, first compound 0.000316 µM) 83.4% | viability, T/C (second compound 3.16 µM, first compound 0.001 µM) 89.5% | viability, T/C (second compound 3.16 µM, first compound 0.00316 µM) 107% | viability, T/C (second compound 3.16 µM, first compound 0.01 µM) 67.7% | viability, T/C (second compound 3.16 µM, first compound 0.0316 µM) 74.3% | viability, T/C (second compound 3.16 µM, first compound 0.1 µM) 64.8% | viability, T/C (second compound 10 µM, first compound 0.000316 µM) 82.4% | viability, T/C (second compound 10 µM, first compound 0.001 µM) 96.2% | viability, T/C (second compound 10 µM, first compound 0.00316 µM) 88.3% | viability, T/C (second compound 10 µM, first compound 0.01 µM) 79.7% | viability, T/C (second compound 10 µM, first compound 0.0316 µM) 78.8% | viability, T/C (second compound 10 µM, first compound 0.1 µM) 47.2%
90.9 nM: IC50 (second compound 10 µM)

Cn1cnc2c(F)c(Nc3ccc(Br)cc3Cl)c(C(=O)NOCCO)cc21 + Cc1nc(NC(=O)N2CCCC2C(N)=O)sc1-c1ccnc(C(C)(C)C(F)(F)F)c1
< 9.49 nM: IC50 (second compound 3.16 µM) | IC50 (second compound 10 µM)
active: viability, T/C (second compound 3.16 µM, first compound 3 µM) 8.72% | viability, T/C (second compound 10 µM, first compound 0.3 µM) 5.65% | viability, T/C (second compound 10 µM, first compound 0.949 µM) 7.32% | viability, T/C (second compound 10 µM, first compound 3 µM) 7.06%
24.9 nM: IC50 (second compound 1 µM)
198 nM: IC50 (second compound 0.0316 µM)
87.6 nM: IC50 (second compound 0.1 µM)
87.9 nM: IC50 (second compound 0.316 µM)
inactive: viability, T/C (second compound 0.0316 µM, first compound 0.00949 µM) 88.1% | viability, T/C (second compound 0.0316 µM, first compound 0.03 µM) 84.8% | viability, T/C (second compound 0.0316 µM, first compound 0.0949 µM) 57% | viability, T/C (second compound 0.0316 µM, first compound 0.3 µM) 47.3% | viability, T/C (second compound 0.0316 µM, first compound 0.949 µM) 52% | viability, T/C (second compound 0.0316 µM, first compound 3 µM) 37.3% | viability, T/C (second compound 0.1 µM, first compound 0.00949 µM) 86.8% | viability, T/C (second compound 0.1 µM, first compound 0.03 µM) 68% | viability, T/C (second compound 0.1 µM, first compound 0.0949 µM) 39% | viability, T/C (second compound 0.1 µM, first compound 0.3 µM) 45.9% | viability, T/C (second compound 0.1 µM, first compound 0.949 µM) 28.4% | viability, T/C (second compound 0.1 µM, first compound 3 µM) 20.2% | viability, T/C (second compound 0.316 µM, first compound 0.00949 µM) 64.2% | viability, T/C (second compound 0.316 µM, first compound 0.03 µM) 63.5% | viability, T/C (second compound 0.316 µM, first compound 0.0949 µM) 35.1% | viability, T/C (second compound 0.316 µM, first compound 0.3 µM) 57.2% | viability, T/C (second compound 0.316 µM, first compound 0.949 µM) 30.3% | viability, T/C (second compound 0.316 µM, first compound 3 µM) 32.6% | viability, T/C (second compound 1 µM, first compound 0.00949 µM) 88.5% | viability, T/C (second compound 1 µM, first compound 0.03 µM) 39.5% | viability, T/C (second compound 1 µM, first compound 0.0949 µM) 36.1% | viability, T/C (second compound 1 µM, first compound 0.3 µM) 27.8% | viability, T/C (second compound 1 µM, first compound 0.949 µM) 29.1% | viability, T/C (second compound 1 µM, first compound 3 µM) 19.6% | viability, T/C (second compound 3.16 µM, first compound 0.00949 µM) 32.8% | viability, T/C (second compound 3.16 µM, first compound 0.03 µM) 34% | viability, T/C (second compound 3.16 µM, first compound 0.0949 µM) 24.2% | viability, T/C (second compound 3.16 µM, first compound 0.3 µM) 11.5% | viability, T/C (second compound 3.16 µM, first compound 0.949 µM) 15.7% | viability, T/C (second compound 10 µM, first compound 0.00949 µM) 22.3% | viability, T/C (second compound 10 µM, first compound 0.03 µM) 19.2% | viability, T/C (second compound 10 µM, first compound 0.0949 µM) 8.64%
